Literature values in patent US20250073222A1, “METHODS FOR THE TREATMENT AND PREVENTION OF NON-VIRAL TICK-BORNE DISEASES AND SYMPTOMS THEREOF” (60 DEGREES PHARMACEUTICALS LLC, priority 2023, published 2025).
Like-named read-outs stand apart in the source and are kept apart here.

What was measured:
Babesia microti = conditions: animals; cited from earlier work
[1] = tested on: various serovars of Leptospira; conditions: exposure for as little as 30 min; cited from earlier work
[2] = tested on: Trypanosome brucei blood stage forms; conditions: exposure for 90 minutes; cited from earlier work
Babesia parasites = conditions: 100 microM for 2 h; cited from earlier work
Treponema palludum = conditions: 50 or 100 microM for two hours in a 3% oxygen atmosphere; cited from earlier work
[3] = cited from earlier work
Pneumocystis = conditions: mice; cited from earlier work
Babesia [4] = conditions: mice, single doses; cited from earlier work
[5] = tested on: P. falciparum gametocytes; conditions: single dose combined with dihydroartemisinin/piperaquine; cited from earlier work
[6] = tested on: gametocytes of P. falciparum; conditions: cited from earlier work
B. gibsoni = conditions: splenectomized dogs; cited from earlier work
Plasmodium falciparum = conditions: 600 mg loading dose followed by 200 mg; parasite load three days after last dose; non-immune volunteers; cited from earlier work
B. rodhaini = conditions: cited from earlier work
Babesia [7] = conditions: one and three doses, immunocompromised mice and dogs; cited from earlier work
[8] = tested on: free-living gram-negative bacteria and free-living gram-positive bacteria; conditions: cited from earlier work
[9] = coadministered with chloroquine; cited from earlier work
B. microti = conditions: one patient, prior rituximab; tafenoquine: approved malaria prevention dose as monotherapy for six weeks; cited from earlier work
Plasmodium vivax = conditions: 400 mg/day for three days, monotherapy, symptomatic P. vivax malaria patients; cited from earlier work
[10] = loading dose of 600 mg over three days followed by weekly 200 mg for up to one year, cited from earlier work
[11] = tested on: extracellular blood stage forms of Trypanosoma brucei; conditions: cited from earlier work
[12] = tested on: intracellular amastigote forms of Leishmania major; conditions: cited from earlier work
[13] = single dose of 20 mg/kg, Balb/c (immunocompetent) mice
[14] = single dose of 20 mg/kg, immunocompromised SCID mice

In the case of `COc1cc(NC(C)CCCN)c2nccc(C)c2c1` (centres unmarked) [4-methyl substituted primaquine], the “efficacy against Babesia microti compared with primaquine” value (Babesia microti) is listed as “more efficacious than primaquine”.
In the case of `OO` [hydrogen peroxide], the concentrations that killed [1] is listed as < 180 µM, the “concentration that killed blood stage forms” value [2] is listed as “approximately 140 microM” and the “effect on Babesia parasites in vitro” value (Babesia parasites) is listed as “kills Babesia parasites in vitro”. For the same compound, the effect on growth (Treponema palludum) was “significantly inhibited”.
In the case of `COc1cc(NC(C)CCCN)c2ncccc2c1` (centres unmarked) [primaquine], the half-life ([3]; in vivo) is listed as “approximately 6 hours”, the “cure of Pneumocystis infections” value (Pneumocystis) is listed as “must be combined with clindamycin to achieve the same outcome” and the “dose that cleared Babesia parasitemia” value (Babesia [4]) is listed as 100 mg/kg. The “time until gametocyte infectivity was statistically lower than reference values” [5] was “by two days post-dosing” and the “effect on gametocytes of P. falciparum” value [6] was “killed by site specific (in bone marrow) excess production of hydrogen peroxide”.
In the case of `COc1cc(C)c2c(Oc3cccc(C(F)(F)F)c3)c(OC)cc(NC(C)CCCN)c2n1` (centres unmarked) [tafenoquine, N(4)-[2,6-Dimethoxy-4-methyl-5-[3-(trifluoromethyl)phenoxy]quinolin-8-yl]pentane-1,4-diamine], the “symptoms of infection such as anorexia, elevated respiration and pulse” value (B. gibsoni) is listed as “alleviated”, the “development of blood stage parasitemia after challenge” value (Plasmodium falciparum) is listed as “none of the tafenoquine subjects did” and the “effect on B. rodhaini blood stages (vacuoles)” value (B. rodhaini; single dose of 20 mg/kg in mice) is listed as “induces the formation of large vacuoles”. For the same compound, the parasitemia (B. rodhaini; [13]) was “cleared parasitemia”, the survival (B. rodhaini; [13]) was 100% and the death (B. rodhaini; [14]) was “death was therefore delayed”. The parasitemia (B. rodhaini; [14]) was “cleared initial parasitemia but did not prevent relapses”, the “half-life in vivo compared with primaquine” value ([3]; FIG. 1A and FIG. 1B legend) was “longer half-life in vivo” and the “clearance and cure of Babesia” value (Babesia [7]) was “sufficient to clear and cure Babesia”. The “activity against gram-negative versus gram-positive bacteria” value [8] was “much less active against free-living gram-negative bacteria than free-living gram-positive bacteria”, the “effect on QTC prolongation of chloroquine” value [9] was “did not increase the QTC prolongation” and the “cure of Pneumocystis infections” value (Pneumocystis) was “can be administered as monotherapy to cure Pneumocystis infections”. The “dose that cleared Babesia parasitemia” value (Babesia [4]) was 20 mg/kg, the “clinical outcome of the regimen” value (B. microti) was “the patient was cured” and the “time by which all patients cleared blood stage parasites” value (Plasmodium vivax) was ≤ 8 days. For the same compound, the “overall rate of adverse events relative to placebo” value [10] was “without increasing the overall rate of adverse events”, the “specific adverse events with increased risk” value ([10]; reversible, not clinically significant) was “gastrointestinal effects [mild to moderate] and cornea verticillata” and the potency of killing [11] was < 4 µM. For the same compound, the potency of killing [12] was < 4 µM.
